One molecule from patent US20050234119A1, “Antiparasitical agents and methods for treating, preventing and controlling external parasites in animals” (priority 2004, published 2005) can be followed below.

The structures appear in SMILES notation.

Data set [1] can be described thus: Concentration in the fur of a dog after topical spot-on solution of the thioamide. The format is in vivo. As to conditions: 0.1 ml/kg. As for the experimental part:
A topical spot-on solution of the thioamide solution containing 100 mg/ml of thioamide and diethylene glycol monoethyl ether was applied to the fur of a dog at the dose rate of 0.1 ml/kg of body weight. The concentration of fipronil in the fur was measured on day 2 and day 7.

Data set [2] is described as follows: In vitro degradation studies of the thioamide derivative of fipronil in CH3CN/H2O under degradation agents. The format is physicochemical. As for the experimental part:
A solution containing thioamide derivative of fipronil in a solution of CH3CN/H2O (50:50 v/v) and the solution was subjected to the following degradation agents: 0.5 N HCl; 0.5 N NaOH; 5% H2O2; UV light; fluorescent light and heat (65° C.).

Data set [3] is described as follows: Concentration in blood plasma of dogs after oral solution of the thioamide derivative of fipronil. The data set is classed as in vivo. As for the experimental part:
An oral formulation (solution) comprising 100 mg/ml of thioamide derivatives of fipronil dissolved in 60:40 propylene glycol: glycerol formal was administered to dogs and the concentration of fipronil in blood plasma measured at 6 hours, day 1, day 2, and day 7 and is presented below

For the molecule `NC(=S)c1nn(-c2c(Cl)cc(C(F)(F)F)cc2Cl)c(N)c1[S+]([O-])C(F)(F)F` (stereo not shown) [thioamide derivative of fipronil], the concentration at 2 day came out at 363000 ng/g in data set [1] (Day 2, topical spot-on 100 mg/ml thioamide in diethylene glycol monoethyl ether) and 129000 ng/g in data set [3] (dog, plasma, Day 2, oral solution 100 mg/ml thioamide derivative). Also, the concentration at 7 day in data set [1] (Day 7, topical spot-on 100 mg/ml thioamide in diethylene glycol monoethyl ether) amounted to 59300 ng/g; in data set [3] (dog, plasma, Day 7, oral solution 100 mg/ml thioamide derivative), 54600 ng/g. Besides, the “stability in acid” value in data set [2] (0.5 N HCl) is on record as “Thioamide derivative stable in acid with only”. Besides, in data set [2] (0.5 N HCl, 4 days), the “amounts of fipronil formed” value is “negligible”. Further, the thioamide derivative degraded in data set [2] (0.5 N HCl, in 4 days, solution of CH3CN/H2O (50:50 v/v)) is recorded as 2.7%; in data set [2] (0.5 N NaOH, in 1 hour, CH3CN/H2O (50:50 v/v)), 95% if the thioamide derivative degraded in 1; in data set [2] (5% H2O2, in 1.5 hours, CH3CN/H2O (50:50 v/v)) it was 100% of the thioamide derivation degraded in; in data set [2] (UV light, in 1 hour, CH3CN/H2O (50:50 v/v)) it was 24% of the thioamide derivation degraded in 1. In addition, the fipronil formed entry in data set [2] (0.5 N NaOH, 1 hour) is “hour, but no fipronil was formed”; in data set [2] (5% H2O2, 1.5 hours), 1.5 hours but no fipronil was formed; fipronil. Further, the fipronil sulfone formed entry in data set [2] (5% H2O2, 1.5 hours) is on record as “sulfone was formed”. The degraded to fipronil is 23% degraded to fipronil in 4 days in data set [2] (Fluorescent light, in 4 days, CH3CN/H2O (50:50 v/v)) and 20% of the thioamide derivation degraded to in data set [2] (Heat (65° C.), in 4 days, CH3CN/H2O (50:50 v/v)). Also, the “concentration in blood plasma” value in data set [3] (Pre-treatment, oral solution 100 mg/ml thioamide derivative in 60:40 propylene glycol:glycerol formal) stood at 0.0 µg/g. In data set [3] (dog, plasma, Day 0.25 (6 hours), oral solution 100 mg/ml thioamide derivative), the concentration at 6 h was 262000 ng/g. The concentration at 1 day in data set [3] (dog, plasma, Day 1, oral solution 100 mg/ml thioamide derivative) came to 162000 ng/g. In addition, in data set [3] (oral solution), the “in-vivo degradation into fipronil” value is “degrades into fipronil in-vivo in amounts that are sufficient for efficacy”.
